{
  "source": "patent US20080032229A1",
  "about": "“BOTTOM ANTIREFLECTIVE COATINGS” (priority 2003, published 2008)",
  "key": {"[1]": {"assay": "Solubility of bases in propylene glycol monomethyl ether acetate (shaken overnight, visual inspection)", "format": "physicochemical", "conditions": "for Solubility, 0.2 wt. % in PGMEA: 0.2 wt. % solution in propylene glycol monomethyl ether acetate, shaken ~20 hours at room temperature; for Solubility, 0.2 wt. % in PGMEA / Solubility, 0.1 wt. % in PGMEA: visual inspection; for Solubility, 0.1 wt. % in PGMEA: diluted to 0.10 wt. % in propylene glycol monomethyl ether acetate; for Solubility in the solvent of the photoresist (propylene glycol monomethyl ether acetate): concentration not given", "procedure": "Several bases were evaluated for solubility in propylene glycol monomethyl ether acetate, the most commonly used solvent in photoresist compositions. A 0.2 wt. % solution of each base was made with propylene glycol monomethyl ether acetate in glass vials. The vials were then placed on a shaker and allowed to shake overnight (˜20 hours) at room temperature. The vials were then visually inspected. If the vials were clear without any haze, cloudiness or solids or crystals at the bottom of the vial, then the base was considered soluble in propylene glycol monomethyl ether acetate. If the vials had haze, cloudiness or solids or crystals at the bottom of the vial, the base was considered not soluble in propylene glycol monomethyl ether acetate. For those vials which contained base at 0.2 wt. % and were considered not soluble, additional propylene glycol monomethyl ether acetate was added to dilute the solution to 0.15 wt. %, or 0.10 wt. %. The diluted vials were then evaluated as discussed above. No further dilutions were made beyond 0.10 wt. %."}, "[2]": {"assay": "Solubility of bases in the antireflective coating solvent 4-hydroxy-4-methyl-2-pentanone", "format": "physicochemical", "description": "For this experiment, base A is aminophylline, which is considered an insoluble base in the solvent of the photoresist (in this experiment, propylene glycol monomethyl ether acetate) but soluble in the solvent of the antireflective coating (in this experiment, 4-hydroxy-4-methyl-2-pentanone); base B is tridodecylamine, which is soluble in both the solvent of the photoresist (in this experiment, propylene glycol monomethyl ether acetate) and the solvent of the antireflective coating (in this experiment, 4-hydroxy-4-methyl-2-pentanone). The bases were evaluated alone or as mixtures in the antireflective coatings. The antireflective coatings were prepared using a co-polymer of benzyl methacrylate—mevalonic lactone methacrylate. The photoacid generator (PAG) was triphenylsulfonium nonaflate, and the aforementioned base(s) and 4-hydroxy-4-methyl-2-pentanone as the solvent completed the antireflective coating formulations. The PAG content was kept at 1.7 wt. % of total solids of the antireflective coating formulations and the antireflective coating formulations were 1.65% total solids."}},
  "note": "Like-named read-outs stand apart in the source and are kept apart here.",
  "data": [
    {"smiles": "Cn1c(=O)c2[nH]c(Cl)nc2n(C)c1=O", "note": "[8-Chlorotheophyllline]", "values": [
      {"measurement": "Solubility, 0.2 wt. % in PGMEA", "setting": "[1]", "value": "Not soluble"},
      {"measurement": "Solubility, 0.1 wt. % in PGMEA", "setting": "[1]", "value": "Not soluble"}
    ]},
    {"smiles": "Nc1ncnc2nc[nH]c12", "note": "[Adenine]", "values": [
      {"measurement": "Solubility, 0.2 wt. % in PGMEA", "setting": "[1]", "value": "Not soluble"},
      {"measurement": "Solubility, 0.1 wt. % in PGMEA", "setting": "[1]", "value": "Not soluble"}
    ]},
    {"smiles": "c1ncc2[nH]cnc2n1", "note": "[Purine]", "values": [
      {"measurement": "Solubility, 0.2 wt. % in PGMEA", "setting": "[1]", "value": "Not soluble"},
      {"measurement": "Solubility, 0.1 wt. % in PGMEA", "setting": "[1]", "value": "Not soluble"}
    ]},
    {"smiles": "Cn1c(=O)c2[nH]cnc2n(C)c1=O", "note": "[Aminophylline, reference compound]", "values": [
      {"measurement": "Solubility in the solvent of the antireflective coating (4-hydroxy-4-methyl-2-pentanone)", "setting": "[2]; concentration not given", "value": "soluble"},
      {"measurement": "Solubility, 0.2 wt. % in PGMEA", "setting": "[1]", "value": "Not soluble"},
      {"measurement": "Solubility in the solvent of the photoresist (propylene glycol monomethyl ether acetate)", "setting": "[1]", "value": "insoluble"},
      {"measurement": "Solubility, 0.1 wt. % in PGMEA", "setting": "[1]", "value": "Not soluble"}
    ]},
    {"smiles": "CN(C)c1ncnc2nc[nH]c12", "note": "[6-(Dimethylamino)purine]", "values": [
      {"measurement": "Solubility, 0.2 wt. % in PGMEA", "setting": "[1]", "value": "Not soluble"},
      {"measurement": "Solubility, 0.1 wt. % in PGMEA", "setting": "[1]", "value": "Soluble"}
    ]},
    {"smiles": "CCCCCCCCCCCCN(CCCCCCCCCCCC)CCCCCCCCCCCC", "note": "[tridodecylamine, reference compound]", "values": [
      {"measurement": "Solubility in the solvent of the antireflective coating (4-hydroxy-4-methyl-2-pentanone)", "setting": "[2]", "value": "soluble"},
      {"measurement": "Solubility in the solvent of the photoresist (propylene glycol monomethyl ether acetate)", "setting": "[1]", "value": "soluble"}
    ]},
    {"smiles": "Cn1c(=O)c2[nH]cnc2n(C)c1=O", "note": "[Theophylline, reference compound]", "values": [
      {"measurement": "Solubility, 0.2 wt. % in PGMEA", "setting": "[1]", "value": "Not soluble"},
      {"measurement": "Solubility, 0.1 wt. % in PGMEA", "setting": "[1]", "value": "Soluble"}
    ]},
    {"smiles": "Nc1nc2nc[nH]c2c(=O)[nH]1", "note": "[Guanine]", "values": [
      {"measurement": "Solubility, 0.2 wt. % in PGMEA", "setting": "[1]", "value": "Not soluble"},
      {"measurement": "Solubility, 0.1 wt. % in PGMEA", "setting": "[1]", "value": "Not soluble"}
    ]},
    {"smiles": "Nc1nc(N)c2[nH]cnc2n1", "note": "[2,6-Diaminopurine]", "values": [
      {"measurement": "Solubility, 0.2 wt. % in PGMEA", "setting": "[1]", "value": "Not soluble"},
      {"measurement": "Solubility, 0.1 wt. % in PGMEA", "setting": "[1]", "value": "Not soluble"}
    ]}
  ]
}
